Laboratory results from US20080194585A1, “Fungicidal Pyrazine Derivatives” (priority 2005, published 2008).
Marks after values point to notes of the source that are not given here.

Tests used:
Pythium aphanidermatum = assay: Test A: bluegrass pythium blight, preventive spray on bluegrass seedlings; conditions: 200 ppm
fusarium graminearium = assay: Test I: wheat head scab, preventive spray on wheat seedlings; conditions: 200 ppm
Procedure: (the causal agent of wheat head scab) and incubated in a saturated atmosphere at 20° C. for 72 h, and then moved to a growth chamber at 22° C. for 5 days, after which disease ratings were made.

Rhizoctonia oryzae = assay: Test G: turf brown patch, preventive spray on creeping bent grass seedlings
Procedure: (the causal agent of turf brown patch) and incubated in a saturated atmosphere at 27° C. for 24 h, and then moved to a growth chamber at 27° C. for 5 days, after which disease ratings were made.

[1] = system: Erysiphe graminis f. sp. tritici; assay: Test L: wheat powdery mildew, preventive spray on wheat seedlings
[2] = system: Colletotrichum orbiculare; assay: Test B: cucumber Colletotrichum anthracnose, preventive spray on cucumber seedlings
Botrytis cinerea = assay: Test E: tomato botrytis, preventive spray on tomato seedlings
Septoria nodorum = assay: Test H: wheat glum blotch, preventive spray on wheat seedlings
Procedure: (the causal agent of wheat glum blotch) and incubated in a saturated atmosphere at 20° C. for 48 h, and then moved to a growth chamber at 22° C. for 5 days, after which disease ratings were made.

Plasmopara viticola = assay: Test D: grape downy mildew, spray after inoculation of grape seedlings; type: in vivo; conditions: 200 ppm
From the text: Upon removal, disease ratings were made. […] A dash (-) indicates no test results.

Phytophthora infestans = assay: whole plant or invertebrate; type: in vivo; conditions: 200 ppm
Septoria tritici = assay: Test J: wheat leaf blotch, preventive spray on wheat seedlings; type: in vivo
From the text: A dash (-) indicates no test results.

Sclerotinia sclerotiorum = assay: Test C: cucumber white mold, preventive spray on cucumber seedlings; conditions: 200 ppm
[3] = system: Puccinia recondita f. sp. tritici; assay: Test K: wheat leaf rust, preventive spray on wheat seedlings

| Structure (SMILES) | Test A disease control rating (Pythium aphanidermatum) [%] | Test I disease control rating (fusarium graminearium) [%] | Test G disease control rating (Rhizoctonia oryzae; 40 ppm (*)) | Test L disease control rating ([1]; 40 ppm (*)) | Test B disease control rating ([2]; 40 ppm (*)) | Test E disease control rating (Botrytis cinerea; 40 ppm (*)) | Test H disease control rating (Septoria nodorum; 40 ppm (*)) | Test D disease control rating (Plasmopara viticola) [%] | Test F disease control rating (Phytophthora infestans) [%] | Test J disease control rating (Septoria tritici; 40 ppm (*)) | Test C disease control rating (Sclerotinia sclerotiorum) [%] | Test K disease control rating ([3]; 40 ppm (*)) | Test G disease control rating (Rhizoctonia oryzae; 200 ppm) [%] | Test L disease control rating ([1]; 200 ppm) [%] | Test B disease control rating ([2]; 200 ppm) [%] | Test E disease control rating (Botrytis cinerea; 200 ppm) [%] | Test H disease control rating (Septoria nodorum; 200 ppm) [%] | Test J disease control rating (Septoria tritici; 200 ppm) [%] | Test K disease control rating ([3]; 200 ppm) [%] |
| --- | --- | --- | --- | --- | --- | --- | --- | --- | --- | --- | --- | --- | --- | --- | --- | --- | --- | --- | --- |
| CCC(C)Cn1c(-c2c(F)cccc2F)c(Cl)nc(-n2ccc(C#N)n2)c1=O (stereo not drawn) [compound 81] | 0 | 0 | 31* % | 0* % | 0* % | 93* % | 0* % | 0 | 0 | 52* % | 0 | 68* % | – | – | – | – | – | – | – |
| CCC(C)Cn1c(-c2c(F)cccc2F)c(Cl)nc(-n2cccc2)c1=O (stereo not drawn) [compound 82] | 0 | 0 | 0* % | 0* % | 0* % | 0* % | 73* % | 0 | 0 | 5* % | 0 | 68* % | – | – | – | – | – | – | – |
| COc1cc(OC)c(-c2c(Cl)nc(-n3cccn3)c(=O)n2CC(C)C)c(OC)c1 [compound 86] | 0 | 23 | – | – | – | – | – | 0 | 0 | – | 4 | – | 0 | 0 | 0 | 0 | 0 | 0 | 0 |
| CC(C)Cn1c(-c2c(F)cccc2C(F)(F)F)c(Cl)nc(-n2cccn2)c1=O [compound 87] | 0 | 18 | – | – | – | – | – | 0 | 0 | – | 95 | – | 99 | 100 | 100 | 100 | 100 | 74 | 100 |
| CC(C)Cn1c(-c2ccc3c(c2)OCO3)c(Cl)nc(-n2cccn2)c1=O [compound 88] | 0 | 0 | – | – | – | – | – | 0 | 24 | – | 99 | – | 16 | 0 | 52 | 100 | 99 | 100 | 97 |
| O=c1c(-n2cccn2)nc(Cl)c(-c2c(F)cccc2F)n1CC1CCCO1 (stereo not drawn) [compound 91] | 0 | 0 | 0* % | 0* % | 0* % | 92* % | 33* % | 0 | 0 | 93* % | 0 | 0* % | – | – | – | – | – | – | – |
| O=c1c(-n2cncn2)nc(Cl)c(-c2c(F)cccc2F)n1CC1CCCO1 (stereo not drawn) [compound 92] | 0 | 0 | 0* % | 0* % | 0* % | 0* % | 0* % | 0 | 0 | 7* % | 0 | 0* % | – | – | – | – | – | – | – |
| COCC(C)n1c(-c2c(F)cccc2F)c(Cl)nc(-n2cccn2)c1=O (stereo not drawn) [compound 93] | 0 | 0 | 70* % | 97* % | 0* % | 79* % | 96* % | 0 | 60 | 83* % | 0 | 98* % | – | – | – | – | – | – | – |
